Laboratory results: PubChem BioAssay (NCI)
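Interpolation was linear, between the two tested concentrations surrounding the appropriate level; five concentrations were tested over 48 hours in 96-well plates. TGI is the concentration that stops growth completely.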

How the values were obtained:
Assay in all cases: growth of human tumour cells (NCI), 48 h
[1] = tested on: NCI-H460 lung
[2] = tested on: SF-268 CNS
[3] = tested on: SK-MEL-28 melanoma
[4] = tested on: SW-620 colon
[5] = tested on: KM20L2 colon
[6] = tested on: SK-MEL-2 melanoma
[7] = tested on: HOP-92 NSCLC
[8] = tested on: A549 NSCLC
[9] = tested on: SNB-78 CNS
[10] = tested on: DMS 273 small cell lung
[11] = tested on: SK-MEL-5 melanoma
[12] = tested on: SR leukemia
[13] = tested on: SF-539 CNS
[14] = tested on: DLD-1 colon
[15] = tested on: SNB-75 CNS
[16] = tested on: HT29 colon
[17] = tested on: M19-MEL melanoma
[18] = tested on: SN12C renal
[19] = tested on: MCF7 breast
[20] = tested on: NCI-H226 lung

| SMILES | TGI [1] [µM] | TGI [2] [µM] | TGI [3] [µM] | TGI [4] [µM] | TGI [5] [µM] | TGI [6] [µM] | TGI [7] [µM] | TGI [8] [µM] | TGI [9] [µM] | TGI [10] [µM] | TGI [11] [µM] | TGI [12] [µM] | TGI [13] [µM] | TGI [14] [µM] | TGI [15] [µM] | TGI [16] [µM] | TGI [17] [µM] | TGI [18] [µM] | TGI [19] [µM] | TGI [20] [µM] |
| --- | --- | --- | --- | --- | --- | --- | --- | --- | --- | --- | --- | --- | --- | --- | --- | --- | --- | --- | --- | --- |
| CC1=C(Cl)C=CP(=O)(Oc2ccccc2)C1 (configuration not stated) | > 100 | > 100 | > 100 | > 100 | > 100 | > 100 | > 100 | > 100 | > 100 | 75.9 | > 100 | – | – | – | – | – | – | – | – | – |
| COc1ccc(/C=c2\sc3n(c2=O)CCN=3)cc1 | > 100 | – | > 100 | > 100 | > 100 | > 100 | 95.8 | > 100 | > 100 | – | > 100 | > 100 | > 100 | > 100 | > 100 | > 100 | > 100 | > 100 | – | – |
| Nc1c(S(=O)(=O)O)cc2cc(S(=O)(=O)O)ccc2c1N=Nc1ccc(-c2ccc(N=Nc3c(N)c(S(=O)(=O)O)cc4cc(S(=O)(=O)O)ccc34)c(S(=O)(=O)O)c2)cc1 | > 31.6 | > 100 | > 100 | > 100 | > 100 | > 100 | > 100 | > 100 | > 100 | > 100 | > 100 | – | > 100 | > 100 | > 100 | > 100 | > 100 | > 100 | 51.4 | > 100 |
| COc1ccc(C(=C2C=CC=C2)c2ccc(OC)cc2)cc1 | 86.7 | > 100 | > 100 | > 100 | – | 68.5 | > 100 | > 100 | – | – | 95.3 | 86.7 | 29.6 | – | > 100 | 66 | – | 81.3 | 37.6 | > 100 |
| Oc1ccc(-c2nc3ccc(Br)cc3s2)cc1 | 52.8 | 57.4 | – | > 100 | – | 33.3 | – | 68.9 | – | – | 60.2 | 36.2 | 35.8 | – | – | 50.5 | – | 49.6 | 74.5 | 39.9 |
| CCCCCCCC/C=C\CCCCCCCCCCCC(=O)O | 34.9 | > 125 | 108 | 90.1 | 122 | 31.1 | 101 | > 125 | > 115 | 48.7 | 57.5 | – | 40.4 | > 125 | 113 | > 125 | 97.2 | > 98 | 33.8 | 107 |
